According to US20020052331A1, “Compositions and methods for antisense inhibition of protein translation” (priority 1990, published 2002):
pIC50: −log10 of the molar value. Where two headings read alike, the source gives them in different places. Strand notation (5' to 3'): a small letter for the sugar, then the base; units joined by * are phosphorothioate-linked, units joined directly phosphodiester-linked; [ ] holds rarer units or linkages, { } end groups; capitals alone tell only the bases. [MMI] = methylene(methylimino) internucleoside backbone linkage; [PRP-N] = 2'-O-propyl ribonucleoside (N: the base); [PRP] = 2'-O-propyl ribonucleoside; e = 2'-O-(2-methoxyethyl) (MOE); [5mC] = 5-methylcytosine; d = 2'-deoxy (DNA); m = 2'-O-methyl; f = 2'-fluoro

Legend:
E-selectin mRNA = experiment: ELISA of E-selectin expression in HUVECs; format: cell-based, human; settings: for inhibition of E-selectin expression: oligomer concentration of 50 nM
VCAM-1 mRNA = experiment: ELISA of VCAM-1 expression in HUVECs; format: cell-based, human; settings: for pIC50: read-out: IC50 for inhibition of VCAM-1 expression
ICAM-1 mRNA [1] = experiment: Cell surface ICAM-1 expression in HUVECs after Lipofectin delivery of MMI oligomers; format: cell-based, human; settings: six concentrations 6.2 to 200 nM, N.A. = IC50 not obtained in the given dose range, read-out: Antisense activity (IC50) Lipofectin
ICAM-1 mRNA [2] = experiment: Cell surface ICAM-1 expression in U937 cells after electroporation of MMI oligomers; format: cell-based, human; settings: six concentrations 4 to 40 μM, N.A. = IC50 not obtained in the given dose range, read-out: Antisense activity (IC50) Electroporate
Description: ISIS 14293-14296 are corresponding oligomers with alternating MMI/P═S backbones.
U937 cells were washed once in cold Opti-MEM (Gibco-BRL, Grand Island, N.Y.) and resuspended at 4×10^6 cells/ml. Oligomer was added to 0.1 ml of cells and incubated for 10 minutes on ice. Cells were transferred to a 1 mm gap electrode (BTX, San Diego, Calif.) and electroporated at 0.75 kV/cm. Cells were incubated at room temperature for 10 minutes and transferred to pre-warmed medium. Cells were allowed to rest for 1.5 hours before ICAM-1 expression was induced with 5 ng/ml TNF-αovernight. Cells were stained with an anti-ICAM-1-PE antibody (Pharmingen, San Diego CA) the next day.

ICAM-1 mRNA [3] = experiment: ELISA of human ICAM-1 protein expression in HUVECs (mAb84H10); format: cell-based; settings: FIG. 4 experiment
ICAM-1 mRNA [4] = experiment: Reduction of ICAM-1 protein levels in HUVEC cells (LIPOFECTIN delivery, FACS); format: cell-based, human
ICAM-1 mRNA [5] = experiment: ICAM-1 expression in U937 cells after electroporation of PNA oligomer (FACS); format: cell-based, human; settings: electroporated into U937 cells
Text: A PNA oligomer, ISIS 10535 (SEQ ID NO: 2), was synthesized, which is a shortened version of SEQ ID NO: 1 made as a PNA, with three arginines added at the 5′ end and one lysine added at the 3′ end. This oligomer was electroporated into U937 cells and a potent dose-response was obtained.
Cells were removed from plate surfaces by brief trypsinization with 0.25% trypsin in PBS. Trypsin activity was quenched with a solution of 2% bovine serum albumin and 0.2% sodium azide in PBS (+Mg/Ca). Cells were pelleted by centrifugation at 1000 rpm (Beckman GPR centrifuge), resuspended in PBS and stained with 3 μl/10^5 cells of ICAM-1 specific antibody, CD54-PE (Becton Dickinson, Mansfield Mass.) and 0.1 μg of control conjugated antibody, IgG2b-PE (Pharmingen, San Diego Calif.). Antibodies were incubated with the cells for 30 minutes at 4° C. in the dark, under gentle agitation. Cells were washed and then resuspended in 0.3 ml of FACSFLOW buffer (Becton Dickinson) with 0.5% formaldehyde. Expression of cell surface ICAM-1 was then determined by flow cytometry using a Becton Dickinson FACScan (San Jose, Calif.). ICAM-1 expression was calculated as a percentage of control expression.
Cells were washed in PBS and resuspended in PBS at 1×10^6 cells/ml. […] ICAM-1 expression was quantitated by FACS as in Example 4.

[6] = HUVECs, ELISA, FIG. 5 experiment, read-out: IC50 for reduction of E-selectin expression
[7] = HUVECs, ELISA, equivalent (second) experiment, read-out: IC50 for reduction of E-selectin expression
[8] = read-out: IC50 for inhibition of ICAM-1 protein expression

Substance: ISIS 11928: SEQ ID NO: 3, P═S all 2′-MOE except 3′ nt is deoxy, all C's 5meC; E-selectin 5′ cap (antisense eG*eA*eA*eG*eT*e[5mC]*eA*eG*e[5mC]*e[5mC]*eA*eA*eG*eA*eA*e[5mC]*eA*eG*e[5mC]*dT)
- pIC50 (E-selectin mRNA; [6]): > 8.52
- pIC50 (E-selectin mRNA; [7]): > 8.52
- inhibition of E-selectin expression (E-selectin mRNA; HUVECs): ~100%

Substance: ISIS 14041: SEQ ID NO: 15, P═S all 2′-O-methyl, all C's are 5meC; VCAM-1 n.t. 1-20 (CGATGCAGATACCGCGGAGT; sugars from the 5' end m19 d1, all C 5-methyl, all phosphorothioate, T or U not given here)
- pIC50 (VCAM-1 mRNA; subsequent experiment): > 8.00

Substance: ISIS 14294: T*GA*GT*AG*CA*GA*GG*AG*CT*C (SEQ ID NO: 12), alternating P═S/MMI; ICAM-1 n.t. 1-18 (TGAGTAGCAGAGGAGCTC; linkages [MMI]s[MMI]s[MMI]s[MMI]s[MMI]s[MMI]s[MMI]s[MMI]s[MMI] (s phosphorothioate, o phosphodiester), sugars by position and methylation of C not given here; 3'-terminal nucleotide 2'-deoxy, non-terminal cytosines 5-methylated)
- pIC50 (ICAM-1 mRNA [1]): 6.76
- pIC50 (ICAM-1 mRNA [2]): 4.70

Substance: ISIS 5884: CGATGCAGATACCGCGGAGT (SEQ ID NO: 15), P═S deoxy; VCAM-1 n.t. 1-20 (dC*dG*dA*dT*dG*dC*dA*dG*dA*dT*dA*dC*dC*dG*dC*dG*dG*dA*dG*dT)
- pIC50 (VCAM-1 mRNA; FIG. 6 experiment): 7.92 to 8.00

Substance: ISIS 13884: GGCTGAGGTTGCAACTCTGA (SEQ ID NO: 9), uniform P═O/2′MOE; ICAM-1 n.t. 16-35 (antisense eGeGe[5mC]eTeGeAeGeGeTeTeGe[5mC]eAeAe[5mC]eTe[5mC]eTeGdA)
- pIC50 (ICAM-1 mRNA [3]; [8]): ~7.40

Substance: ISIS 13181: SEQ ID NO: 15 sequence, P═S all 2′ F; VCAM-1 n.t. 1-20 (antisense CGATGCAGATACCGCGGAGT; sugars from the 5' end f19 d1, all phosphorothioate, T or U not given here)
- pIC50 (VCAM-1 mRNA; FIG. 6 experiment): > 8.00
- inhibition of VCAM-1 expression (VCAM-1 mRNA; highest dose tested, 100 nM): 100%

Substance: ISIS 14295: A*GT*AG*CA*GA*GG*AG*CT*C (SEQ ID NO: 13), alternating P═S/MMI; ICAM-1 n.t. 1-16 (AGTAGCAGAGGAGCTC; chemistry not fully specified)
- pIC50 (ICAM-1 mRNA [2]): 4.46

Substance: ISIS 9984: SEQ ID NO: 3 GAAGTCAGCCAAGAACAGCT, P═S all 2′ F except 3′ nt is deoxy; E-selectin 5′ cap (sugars from the 5' end f19 d1, all phosphorothioate, T or U not given here)
- IC50 for inhibition of E-selectin expression (E-selectin mRNA; HUVECs, FIG. 3 experiment): well below this
- relative activity in inhibiting E-selectin protein expression (E-selectin mRNA; among over 30 2′-fluoro phosphorothioate sequences complementary to various regions of the E-selectin message): by far the most active

Substance: ISIS 13183: SEQ ID NO: 15, P═O all 2′-MOE, all C's are 5meC; VCAM-1 n.t. 1-20 (antisense e[5mC]eGeAeTeGe[5mC]eAeGeAeTeAe[5mC]e[5mC]eGe[5mC]eGeGeAeGdT)
- pIC50 (VCAM-1 mRNA; FIG. 6 experiment): > 8.00

Substance: ISIS 11158: SEQ ID NO: 1, 2′-methoxyethoxy, phosphodiester (P═O); targeted to ICAM-1 5′ cap (antisense TCTGAGTAGCAGAGGAGCTC; all 2'-MOE, all phosphodiester, methylation of C not given here)
- pIC50 (ICAM-1 mRNA [3]; [8]): ~8.30
- ICAM-1 protein expression at the oligonucleotide concentrations of the Northern experiment (ICAM-1 mRNA [4]; HUVECs): completely inhibited
- pIC50 (ICAM-1 mRNA [4]; read-out: IC50 (concentration required for 50% inhibition of ICAM-1 levels), HUVEC cells): ~8.05
- pIC50 (ICAM-1 mRNA [2]): 6.00

Substance: ISIS 14292: T*AG*CA*GA*GG*AG*CT*C (SEQ ID NO: 14), alternating P═O/MMI; ICAM-1 n.t. 1-14 (TAGCAGAGGAGCTC; linkages [MMI]o[MMI]o[MMI]o[MMI]o[MMI]o[MMI]o[MMI] (s phosphorothioate, o phosphodiester), sugars by position and methylation of C not given here; 3'-terminal nucleotide 2'-deoxy, non-terminal cytosines 5-methylated)
- pIC50 (ICAM-1 mRNA [2]): 4.82

Substance: ISIS 14290: T*GA*GT*AG*CA*GA*GG*AG*CT*C (SEQ ID NO: 12), alternating P═O/MMI; ICAM-1 n.t. 1-18 (TGAGTAGCAGAGGAGCTC; linkages [MMI]o[MMI]o[MMI]o[MMI]o[MMI]o[MMI]o[MMI]o[MMI]o[MMI] (s phosphorothioate, o phosphodiester), sugars by position and methylation of C not given here; 3'-terminal nucleotide 2'-deoxy, non-terminal cytosines 5-methylated)
- pIC50 (ICAM-1 mRNA [2]): 5.15

Substance: ISIS 14040: SEQ ID NO: 15, P═S all 2′-O-propyl, all C's are 5meC; VCAM-1 n.t. 1-20 (antisense [PRP-5mC]*[PRP-G]*[PRP-A]*[PRP-T]*[PRP-G]*[PRP-5mC]*[PRP-A]*[PRP-G]*[PRP-A]*[PRP-T]*[PRP-A]*[PRP-5mC]*[PRP-5mC]*[PRP-G]*[PRP-5mC]*[PRP-G]*[PRP-G]*[PRP-A]*[PRP-G]*dT)
- pIC50 (VCAM-1 mRNA; subsequent experiment): > 8.00

Substance: ISIS 14043: SEQ ID NO: 3, P═S all 2′-O-methyl except 3′ nt is deoxy, all C's 5meC; E-selectin 5′ cap (GAAGTCAGCCAAGAACAGCT; sugars from the 5' end m19 d1, all C 5-methyl, all phosphorothioate, T or U not given here)
- pIC50 (E-selectin mRNA; [7]): 8.00

Substance: ISIS 13886: GCAACTCTGAGTAGCAGAGG (SEQ ID NO: 10), uniform P═O/2′MOE; ICAM-1 n.t. 6-25 (antisense eGe[5mC]eAeAe[5mC]eTe[5mC]eTeGeAeGeTeAeGe[5mC]eAeGeAeGdG)
- pIC50 (ICAM-1 mRNA [3]; [8]): < 7.30
- pIC50 (ICAM-1 mRNA [3]; tested only up to 50 nM, read-out: estimated IC50 by extrapolation of the dose-response curve): ~7.22

Substance: ISIS 11205: SEQ ID NO: 3, P═S all 2′ F except 3′ nt is deoxy, all C's 5meC; E-selectin 5′ cap (antisense GAAGTCAGCCAAGAACAGCT; sugars from the 5' end f19 d1, all C 5-methyl, all phosphorothioate, T or U not given here)
- pIC50 (E-selectin mRNA; [6]): > 8.52
- pIC50 (E-selectin mRNA; [7]): > 8.52
- inhibition of E-selectin expression (E-selectin mRNA; HUVECs): ~100%

Substance: ISIS 4764: SEQ ID NO: 3, P═S deoxy; E-selectin 5′ cap (dG*dA*dA*dG*dT*dC*dA*dG*dC*dC*dA*dA*dG*dA*dA*dC*dA*dG*dC*dT)
- pIC50 (E-selectin mRNA; [6]): ~8.00
- pIC50 (E-selectin mRNA; [7]): 8.00
- pIC50 (E-selectin mRNA; HUVECs, FIG. 3 experiment, read-out: IC50 for inhibition of E-selectin expression): > 8.00

Substance: ISIS 9218: SEQ ID NO: 3, P═S all 2′-O-propyl except 3′ nt is deoxy; E-selectin 5′ cap (GAAGTCAGCCAAGAACAGCT; sugars from the 5' end [PRP]19 d1, all phosphorothioate, methylation of C not given here)
- pIC50 (E-selectin mRNA; [7]): 7.60

Substance: ISIS 13182: SEQ ID NO: 15, P═S all 2′-MOE, all C's are 5meC; VCAM-1 n.t. 1-20 (antisense e[5mC]*eG*eA*eT*eG*e[5mC]*eA*eG*eA*eT*eA*e[5mC]*e[5mC]*eG*e[5mC]*eG*eG*eA*eG*dT)
- pIC50 (VCAM-1 mRNA; FIG. 6 experiment): > 8.00

Substance: ISIS 10535: PNA oligomer (SEQ ID NO: 2), shortened SEQ ID NO: 1, three arginines at the 5′ end and one lysine at the 3′ end (antisense TCTGAGTAGCAGAGGAGC; all peptide nucleic acid (PNA); three arginines at 5' end, one lysine at 3' end)
- ICAM-1 level at higher doses (ICAM-1 mRNA [5]): below baseline levels
- pIC50 (ICAM-1 mRNA [5]; read-out: IC50 for ICAM-1 reduction): > 5.30
